pIC50: −log10 of the molar value. Read-outs that look alike come from different tables or passages of the source.

This is an account of results in patent US20150175585A1, “FUSED QUINONIC COMPOUNDS” (CENTRO ATLANTICO DEL MEDICAMENTO S.A (CEAMED, S.A.), priority 2012, published 2015).

One test deals with JAK2. The test is described as follows: JAK2 phosphorylation western blot assay. The settings on record: 10 microM, HEL or K562 cells (table does not say which). The class given is cell-based, human. The procedure: (§1) The Human Erythroleukemia cell line HEL and the human Chronic Myeloid Leukemia cell line K562 were cultured in RPM I 1640 medium containing 10% fetal bovine serum (FBS) and 50 U/ml penicillin/50 U/ml streptomycin at 37° C. in a 5% CO2 humidified atmosphere to a density of 300.000 viable cells/mL in presence of WP1066 (positive control of phosphorylation inhibition) (Verstovsek et al., 2008) or CM-363 at concentrations of 1, 5 and 10 μM. Cell culture reagents were all obtained from BioWhittaker® (Lonza, Verniers, Belgium). Cell growth and viability was determined by propidium iodide (fluorescent dye) exclusion method using the Accuchip 4× Counting Kit and the ADAM automatic cell counter (Digital-Bio, NanoEntek, Ic., Washington St, Mass., USA).As a control of unspecific phosphorylation, some cells in each experiment were exposed to vehicle (negative control of phosphorylation inhibition) (0.1% DMSO).
(§2) For total protein extraction, cells were scraped with RIPA 1× lysis buffer (25 mM Tris-HCl pH 7.6, 150 mM NaCl, 1% NP-40, 1% sodium deoxycholate, 0.1% SDS, no. 89900, Thermo Scientific, Rockford, Ill., USA) supplemented with 1× protease and 1× phosphatase inhibitor cocktails (100× Halt™ Protease Inhibitor Cocktail, no. 87786 and 100× Halt Phosphatase Inhibitor Cocktail, no. 78420, both from Thermo Scientific, Rockford, Ill., USA). An aliquot of each extract was preserved for protein quantification by bicinchoninic acid assay (Pierce® BCA Protein Assay Kit, no. 23225, Thermo Scientific, Rockford, Ill., USA).
(§3) Proteins were solubilized in sample buffer containing 0.0625 M Tris-HCl, pH 6.8, 2.3% (wt/vol) SDS, 10% (vol/vol) glycerol, 5% (vol/vol) f3-mercaptoethanol, and 0.001% (wt/vol) bromophenol blue and boiled at 95° C. for 5 min. Equal amounts (50 μg) of each sample were electrophoresed on 8-10% sodium dodecyl sulfate-polyacrylamide gel electrophoresis (SDS-PAGE) and transferred to nitrocellulose membranes (iBlot® Gel Transfer Stacks, Nitrocellulose, no. IB4010-02, Invitrogen, Barcelona, Spain) as described previously (Fernandez, L, et al., Endocrinology, 13, 1815-1824, 1998; B. Guerra et al., J. Neurochem, 91, 99-109, 2004; B. Guerra et al., J. Appl. Physiol., 102, 1786-1792, 2007; B. Guerra et al., J. Appl. Physiol., 111, 715-725, 2011). The nitrocellulose membranes were then removed from the iBlot® Dry GelTransfer Device (no. IB1001EU, Invitrogen, Barcelona, Spain) and placed in a Ponceau S staining solution (0.5% Ponceau S and 1% glacial acetic acid in water) to verify equal loading of protein in the control and treated samples. After the membranes were stained for 5 min, they were rinsed for 2 min and examined. Equal loading of protein was verified, and the membranes were rinsed for an additional 10 min and immunoscreened. Membranes were blocked with 5% blotting grade blocker nonfat dry milk in Tris Buffered Saline with 0.05% Tween 20 (TBST; blotto-blocking buffer) for at least […]) at room temperature. They were washed thrice in TBS with 0.1% Tween 20 (TBST-0.1). Next, the membranes were incubated over night at 4° C. with the appropriate anti-phospho-antibodies (described below) all diluted (1:1000) in 1% bovine serum albumin (BSA)-1% blotto in TBST (BSA-blotto blocking buffer). […] Membranes were stripped of bound antibodies by incubation in stripping buffer (Restore™ Western Blot Stripping Buffer, no. 21059, Thermo Scientific, Rockford, Ill., USA) at room temperature for 30 min with agitation. Membranes were washed for 3×10 min in TBST-0.1, blocked with blotto-blocking buffer for at least 1 h and re-probed with the corresponding anti-total kinase antibodies (described below) all diluted (1:1000) in blotto-blocking buffer. […]

Test [1] concerns STAT5 transcription (pSPI-GLE1-luc) in HEK-GHR cells. The test is described as follows: HEK-GHR STAT5 transcription assay (luciferase reporter, rhGH stimulated). In kind it is cell-based, human. The settings on record: compound 45 minutes before 50 nM rhGH, six hours, read-out: Activity (IC50, reduction of luciferase activity). An excerpt: Plasmids: The full-length GHR was subcloned into pcDNA1/ampicillin (Invitrogen) as described previously (Ross R J, Esposito N, Shen X Y, et al., Mol Endocrinol 1997, 11:265-73). The pSPI-GLE1 (serine protease inhibitor 2.1 GAS-like element 1)-luc reporter construct was generated by subcloning the Stat5-binding element from serine protease inhibitor gene together with a minimal thymidine kinase promoter into the pGL2 plasmid (Promega), which contains the firefly luciferase cDNA (Wood T J, Sliva D, Lobie P E, et al. J Biol Chem 1995, 270:9448-53).
Cell culture: HEK-GHR cell line was maintained in Dulbecco's Modified Eagle Medium (DMEM)/F12 supplemented with 10% fetal bovine serum (FBS) and 50 U/ml penicillin/50 U/ml streptomycin. The cells were maintained in a humidified incubator with 5% CO2 at 37° C. Cell culture reagents were obtained from PAA laboratories. The HEK-GHR cell line is a stable clone generated and kindly donated by Prof. Richard Ross (Clinical Sciences, Northern General Hospital, Sheffield, UK). Briefly, HEK-GHR cell line was generated in HEK 293 cells (human kidney embryonal cell line) by transfection with the calcium phosphate procedure of the GHR plasmid with pcDNA3/Neo (Invitrogen). Selection was made using G418 (400 ug/ml, Sigma) (Maamra M, Finidori J, Von Laue S, et al., J Biol Chem 1999, 274(21):14791-8).
Luciferase reporter assay: Transcription assays were performed in HEK-GHR. The HEK-GHR cells were co-transfected with Stat5 luciferase (pSPI-GLE1-luc) reporter vector together with a plasmid constitutively expressing beta-galactosidase by using Metafectene Pro as described by the manufacturer (Biontex Laboratories GmbH, Munich, Germany). Following transfection, HEK-GHR cells were serum-starved for 20 h. Cells were then treated with vehicle (0.1% DMSO) or the indicated compound for 45 minutes prior to the addition of 50 nM recombinant human Growth Hormone (rhGH) (Norditropin, Novo Nordisk) to the medium. Six hours following rhGH addition, cells were harvested with Passive Lysis Buffer (Promega), and levels of luciferase were measured using Luciferase Assay System as described by the manufacturer (Promega). The Galacto-Light Plus System (Applied Biosystems) was used to measure beta-galactosidase activity.
Statistical analysis. The concentration of drug that provokes 50% reduction of luciferase activity (IC50) was determined by using non-linear regression analysis and data were fitted to a log concentration vs normalized response curve in GraphPad software v5 (San Diego, Calif.).
On the technique in general: In a reporter assay the amount or activity of a reporter protein is the signal.

The next test deals with HEL cells. The test is described as follows: HEL-based MTT cell viability assay. The arrangement: species or system human. The settings on record: 48 h, read-out: Activity (IC50, reduction of cell viability). Here is the method: Cell viability was assayed by measuring the mitochondrial reduction of the tetrazolium salt 3-(4,5-methyltiazol-2yl)-2,5diphenyl-tetrazolium bromide] (MTT) (Applichen; A2231,0010) (Mosmann T. J Immunol Methods. 1983 16; 65(1-2):55-63; Chuan Y-C et al 2010. Oncogene. 29 (10), 1531-1542. Cells were seeded in 96-well plates in medium supplemented with 10% FBS (Lonza Cat. No: 14-502F), 2 mM L-Glut (Lonza Cat. No: BE17-605E) and 100 U/ml PEST (Lonza Cat. No: DE17-605E) at a cell density of 5000-20000 cells/well. Cells were seeded at a density according to their exponential growth phase. Vehicle (0.05% DMSO) or drug were added to culture medium at the indicated concentrations (10 to 0.01 microM) during 48 h. Then, MTT (0.3 mg/ml) was added to cells following by incubation for 2-4 h at 37° C. in the dark. The medium was then discarded and the formazan precipitate was solubilized by addition of 20% SDS (Sigma; L-5750) in 0.02N HCl (Panreac; 131020.1611) for 12-16 h. The optical density was measured at 595 nm with the iMark Microplate Reader (BioRad, USA). Data was expressed as percent growth above the level in controls and the results in figures were plotted as means±SEM of each test point from 3 replicates.
Statistical analysis. The concentration of drug that provokes 50% reduction of cell viability (IC50) was determined by using non-linear regression analysis and data were fitted to a log concentration vs normalized response curve in GraphPad software v5 (San Diego, Calif.).

For another test, the system named is STAT5. The test is described as follows: STAT5 phosphorylation western blot assay. Conditions: 10 microM, HEL or K562 cells (table does not say which). In kind it is cell-based, human. Here is the method: as §1, §2, §3
On the technique in general: Immunoblotting shows a protein as a band on a membrane.

For orientation: pIC50 means the negative decadic logarithm of the IC50, by convention in mol/L. Consider `O=C1CCCC2=C1C(c1cccs1)C1=C(N2)C(=O)c2ccccc2C1=O` (stereo not drawn) [Compound 6, 12-(thiophen-2-yl)-3,4-dihydrobenzo[b]acridine-1,6,11(2H,5H,12H)-trione], for which the “Activity (inhibition of JAK2 phosphorylation)” value in the test with JAK2 is listed as “+ (+represents an inhibition at 10 microM > 30%)”. For the same molecule, the values for the pIC50 (in test [1] (Homo sapiens); with HEL cells (Homo sapiens)) were more than 5.30 and more than 5.52, respectively. In addition, the “Activity (inhibition of STAT5 phosphorylation)” value with STAT5 is listed as “++ (++represents an inhibition at 10 microM > 50%)”.
Regarding `CC1(C)CC(=O)C2=C(C1)NC1=C(C(=O)c3ncncc3C1=O)C2c1ccccc1` (stereo not drawn) [Compound 8], the “Activity (inhibition of JAK2 phosphorylation)” value in the test on JAK2 was “+++ (+++represents an inhibition at 10 microM > 75%)”. Moreover, the pIC50 was more than 5.30 in test [1] and more than 5.52 in the test with HEL cells. Further, the “Activity (inhibition of STAT5 phosphorylation)” value in the test with STAT5 is “+ (+represents an inhibition at 10 microM > 50%)”.
In the case of `O=C1CCCC2=C1C(c1cccnc1)C1=C(N2)C(=O)c2ccccc2C1=O` (stereo not drawn) [Compound 17], the “Activity (inhibition of JAK2 phosphorylation)” value in the test on JAK2 was “+++ (+++represents an inhibition at 10 microM > 75%)”. For the same molecule, the pIC50 was more than 5.30 in test [1] and more than 5.52 with HEL cells. For the same molecule, the “Activity (inhibition of STAT5 phosphorylation)” value with STAT5 is “+ (+represents an inhibition at 10 microM > 50%)”.
Regarding `CC1(C)CC(=O)C2=C(C1)NC1=C(C(=O)c3cn[nH]c3C1=O)C2c1ccccc1` (stereo not drawn) [Compound 5], the “Activity (inhibition of JAK2 phosphorylation)” value in the test on JAK2 was “+ (+represents an inhibition at 10 microM > 30%)”. Moreover, the pIC50 is more than 5.30 in test [1] and more than 5.52 with HEL cells. For the same molecule, the “Activity (inhibition of STAT5 phosphorylation)” value with STAT5 is reported as “+ (+represents an inhibition at 10 microM > 50%)”.
In the same order, the values of `CC1(C)CC(=O)C2=C(C1)OC1=C(C(=O)c3ccccc3C1=O)C2c1ccoc1` (stereo not drawn) [Compound 21] are “+ (+represents an inhibition at 10 microM > 30%)”, more than 6.00, more than 5.52 and “++ (++represents an inhibition at 10 microM > 50%)”.
Take `CC1(C)CC(=O)C2=C(C1)OC1=C(C(=O)c3ccccc3C1=O)C2c1ccccn1` (stereo not drawn) [Compound 12]: the “Activity (inhibition of JAK2 phosphorylation)” value in the test with JAK2 was “++ (++represents an inhibition at 10 microM > 50%)”. Further, the pIC50 in test [1] was more than 6.00; in the test on HEL cells, more than 5.52. The “Activity (inhibition of STAT5 phosphorylation)” value in the test on STAT5 was “++ (++represents an inhibition at 10 microM > 50%)”.
With `CC1(C)CC(=O)C2=C(C1)OC1=C(C(=O)c3ccccc3C1=O)C2c1cccs1` (stereo not drawn) [Compound 7, 3,3-dimethyl-12-(thiophen-2-yl)-3,4-dihydro-1H-benzo[b]xanthene-1,6,11(2H,12H)-trione], in the test on JAK2, the “Activity (inhibition of JAK2 phosphorylation)” value is listed as “+++ (+++represents an inhibition at 10 microM > 75%)”. The pIC50 in test [1] (Homo sapiens) was more than 6.00; with HEL cells (Homo sapiens) it was more than 5.00. Moreover, in the test on STAT5, the “Activity (inhibition of STAT5 phosphorylation)” value is listed as “+++ (+++represents an inhibition at 10 microM > 75%)”.
For `O=C1CCCC2=C1C(c1ccccn1)C1=C(O2)C(=O)c2ccccc2C1=O` (stereo not drawn) [Compound 11, 12-(pyridin-2-yl)-3,4-dihydro-1H-benzo[b]xanthene-1,6,11(2H,12H)-trione], the pIC50 in test [1] (Homo sapiens) is more than 6.00; in the test with HEL cells (Homo sapiens), more than 5.00. Also, the “Activity (inhibition of STAT5 phosphorylation)” value in the test with STAT5 is on record as “+ (+represents an inhibition at 10 microM > 50%)”.
With `O=C1CCCC2=C1C(c1ccccc1Cl)C1=C(N2)C(=O)c2ccccc2C1=O` (stereo not drawn) [Compound 22], the “Activity (inhibition of JAK2 phosphorylation)” value in the test with JAK2 is “++ (++represents an inhibition at 10 microM > 50%)”. Besides, the figures for the negative logarithm of the IC50 (pIC50) (in test [1]; in the test with HEL cells) were more than 5.30 and more than 5.52, respectively. Moreover, the “Activity (inhibition of STAT5 phosphorylation)” value with STAT5 is reported as “+++ (+++represents an inhibition at 10 microM > 75%)”.
For `O=C1CCCC2=C1C(c1ccc(Br)cc1)C1=C(O2)C(=O)c2ccccc2C1=O` (stereo not drawn) [Compound 10], in that order: “++ (++represents an inhibition at 10 microM > 50%)”, more than 6.00, more than 5.52 and “+ (+represents an inhibition at 10 microM > 50%)”.
`CC1(C)CC(=O)C2=C(C1)NC1=C(C(=O)c3ccccc3C1=O)C2c1cnc(Cl)nc1` (stereo not drawn) [Compound 19]: in the test with JAK2, the “Activity (inhibition of JAK2 phosphorylation)” value was “++ (++represents an inhibition at 10 microM > 50%)”. Besides, the pIC50 is more than 5.30 in test [1] and more than 5.52 in the test on HEL cells.
